Values after ≈ are worked out from the molar mass of the structure shown.
Experiments:
[1] = tested on: Mycobacterium tuberculosis; test: Antitubercular activity against Mycobacterium tuberculosis H37Rv ATCC 27294 after 5 days by micro alamar blue assay; format: functional
Staphylococcus aureus [2] = test: Antibacterial activity against Staphylococcus aureus at 10 ug/disk after 24 hrs by agar plate disk diffusion method; format: functional; settings: read-out: DIZ
Escherichia coli [3] = test: Antibacterial activity against Escherichia coli at 10 ug/disk after 24 hrs by agar plate disk diffusion method; format: functional; settings: read-out: DIZ
Proteus vulgaris [4] = test: Antibacterial activity against Proteus vulgaris at 10 ug/disk after 24 hrs by agar plate disk diffusion method; format: functional; settings: read-out: DIZ
Pseudomonas aeruginosa [5] = test: Antibacterial activity against Pseudomonas aeruginosa at 10 ug/disk after 24 hrs by agar plate disk diffusion method; format: functional; settings: read-out: DIZ
Salmonella typhi [6] = test: Antibacterial activity against Salmonella typhi at 10 ug/disk after 24 hrs by agar plate disk diffusion method; format: functional, Salmonella enterica subsp. enterica serovar Typhi; settings: Salmonella enterica, read-out: DIZ
Salmonella paratyphi [7] = test: Antibacterial activity against Salmonella paratyphi at 10 ug/disk after 24 hrs by agar plate disk diffusion method; format: functional, Salmonella enterica subsp. enterica serovar Paratyphi A; settings: Salmonella enterica, read-out: DIZ
Staphylococcus aureus [8] = test: Antibacterial activity against Staphylococcus aureus after 24 hrs by agar dilution method; format: functional
Staphylococcus aureus [9] = test: Antibacterial activity against Staphylococcus aureus after 5 days by microdilution method; format: functional; settings: 120 h
Escherichia coli [10] = test: Antibacterial activity against Escherichia coli after 24 hrs by agar dilution method; format: functional
Escherichia coli [11] = test: Antibacterial activity against Escherichia coli after 5 days by microdilution method; format: functional; settings: 120 h
Proteus vulgaris [12] = test: Antibacterial activity against Proteus vulgaris after 24 hrs by agar dilution method; format: functional
Proteus vulgaris [13] = test: Antibacterial activity against Proteus vulgaris after 5 days by microdilution method; format: functional; settings: 120 h
Pseudomonas aeruginosa [14] = test: Antibacterial activity against Pseudomonas aeruginosa after 24 hrs by agar dilution method; format: functional
Pseudomonas aeruginosa [15] = test: Antibacterial activity against Pseudomonas aeruginosa after 5 days by microdilution method; format: functional; settings: 120 h
Salmonella typhi [16] = test: Antibacterial activity against Salmonella typhi after 24 hrs by agar dilution method; format: functional, Salmonella enterica subsp. enterica serovar Typhi; settings: Salmonella enterica
Salmonella typhi [17] = test: Antibacterial activity against Salmonella typhi after 5 days by microdilution method; format: functional, Salmonella enterica subsp. enterica serovar Typhi; settings: Salmonella enterica, 120 h
Salmonella paratyphi [18] = test: Antibacterial activity against Salmonella paratyphi after 24 hrs by agar dilution method; format: functional, Salmonella enterica subsp. enterica serovar Paratyphi A; settings: Salmonella enterica
Salmonella paratyphi [19] = test: Antibacterial activity against Salmonella paratyphi after 5 days by microdilution method; format: functional, Salmonella enterica subsp. enterica serovar Paratyphi A; settings: Salmonella enterica, 120 h

| Compound | inhibition (INH) [1] [%] | zone of inhibition at 10 µg/disc (Staphylococcus aureus [2]) [mm] | zone of inhibition at 10 µg/disc (Escherichia coli [3]) [mm] | zone of inhibition at 10 µg/disc (Proteus vulgaris [4]) [mm] | zone of inhibition at 10 µg/disc (Pseudomonas aeruginosa [5]) [mm] | zone of inhibition at 10 µg/disc (Salmonella typhi [6]) [mm] | zone of inhibition at 10 µg/disc (Salmonella paratyphi [7]) [mm] | MIC (Staphylococcus aureus [8]) [µg/mL] | MIC (Staphylococcus aureus [9]) [µg/mL] | MIC (Escherichia coli [10]) [µg/mL] | MIC (Escherichia coli [11]) [µg/mL] | MIC (Proteus vulgaris [12]) [µg/mL] | MIC (Proteus vulgaris [13]) [µg/mL] | MIC (Pseudomonas aeruginosa [14]) [µg/mL] | MIC (Pseudomonas aeruginosa [15]) [µg/mL] | MIC (Salmonella typhi [16]) [µg/mL] | MIC (Salmonella typhi [17]) [µg/mL] | MIC (Salmonella paratyphi [18]) [µg/mL] | MIC (Salmonella paratyphi [19]) [µg/mL] |
| --- | --- | --- | --- | --- | --- | --- | --- | --- | --- | --- | --- | --- | --- | --- | --- | --- | --- | --- | --- |
| CO[C@H]1/C=C/O[C@@]2(C)Oc3c(C)c(O)c4c(O)c(c(/C=N/N5CCN(C)CC5)c(O)c4c3C2=O)NC(=O)/C(C)=C\C=C\[C@H](C)[C@H](O)[C@@H](C)[C@@H](O)[C@@H](C)[C@H](OC(C)=O)[C@@H]1C [RIFAMPIN] | 98 | – | – | – | – | – | – | – | – | – | – | – | – | – | – | – | – | – | – |
| CCn1cc(C(=O)NN)c(=O)c2ccc(C)nc21 | 80 | 28 | 39 | 34 | 39 | 28 | 20 | 0.12 (≈ 0.487 µM) | 0.12 (≈ 0.487 µM) | 0.06 (≈ 0.244 µM) | 0.06 (≈ 0.244 µM) | 0.06 (≈ 0.244 µM) | 0.06 (≈ 0.244 µM) | 0.25 (≈ 1.02 µM) | 0.25 (≈ 1.02 µM) | 0.5 (≈ 2.03 µM) | 0.5 (≈ 2.03 µM) | 0.5 (≈ 2.03 µM) | 0.5 (≈ 2.03 µM) |
| CCn1cc(C(=O)N/N=c2\[nH]c3ccccc3[nH]c2=O)c(=O)c2ccc(C)nc21 | 91 | 21 | 22 | 20 | 17 | 14 | 15 | 1 (≈ 2.56 µM) | 1 (≈ 2.56 µM) | 2 (≈ 5.12 µM) | 2 (≈ 5.12 µM) | 2 (≈ 5.12 µM) | 2 (≈ 5.12 µM) | > 4 | > 4 | > 4 | > 4 | > 4 | > 4 |
| CCn1cc(-c2nn(-c3nc4ccccc4[nH]c3=O)c(=S)o2)c(=O)c2ccc(C)nc21 | 75 | 32 | 25 | 26 | 23 | 23 | 22 | 0.06 (≈ 0.139 µM) | 0.06 (≈ 0.139 µM) | 0.5 (≈ 1.16 µM) | 0.5 (≈ 1.16 µM) | 1 (≈ 2.31 µM) | 1 (≈ 2.31 µM) | 1 (≈ 2.31 µM) | 1 (≈ 2.31 µM) | 1 (≈ 2.31 µM) | 1 (≈ 2.31 µM) | 1 (≈ 2.31 µM) | 1 (≈ 2.31 µM) |
| CCOC(=O)c1cn(CC)c2nc(C)ccc2c1=O | 78 | 24 | 22 | 23 | 17 | 21 | 19 | 0.25 (≈ 0.96 µM) | 0.25 (≈ 0.96 µM) | 0.5 (≈ 1.92 µM) | 0.5 (≈ 1.92 µM) | 0.5 (≈ 1.92 µM) | 0.5 (≈ 1.92 µM) | 2 (≈ 7.68 µM) | 2 (≈ 7.68 µM) | 1 (≈ 3.84 µM) | 1 (≈ 3.84 µM) | 1 (≈ 3.84 µM) | 1 (≈ 3.84 µM) |
| CCn1cc(-c2n[nH]c(=S)n2-c2nc3ccccc3[nH]c2=O)c(=O)c2ccc(C)nc21 | 77 | 30 | 28 | 30 | 29 | 22 | 23 | 0.06 (≈ 0.139 µM) | 0.06 (≈ 0.139 µM) | 0.06 (≈ 0.139 µM) | 0.06 (≈ 0.139 µM) | 0.5 (≈ 1.16 µM) | 0.5 (≈ 1.16 µM) | 1 (≈ 2.32 µM) | 1 (≈ 2.32 µM) | 1 (≈ 2.32 µM) | 1 (≈ 2.32 µM) | 1 (≈ 2.32 µM) | 1 (≈ 2.32 µM) |
| O=C(O)c1cn(C2CC2)c2cc(N3CCNCC3)c(F)cc2c1=O [CIPROFLOXACIN] | – | 30 | 28 | 33 | 23 | 26 | 25 | 0.12 (≈ 0.362 µM) | 0.12 (≈ 0.362 µM) | – | – | 0.25 (≈ 0.754 µM) | 0.25 (≈ 0.754 µM) | – | – | 0.12 (≈ 0.362 µM) | 0.12 (≈ 0.362 µM) | 0.25 (≈ 0.754 µM) | 0.25 (≈ 0.754 µM) |
| NNC(=O)c1ccncc1 [ISONIAZID] | 100 | – | – | – | – | – | – | – | – | – | – | – | – | – | – | – | – | – | – |
| CC1(C)S[C@@H]2[C@H](NC(=O)[C@H](N)c3ccc(O)cc3)C(=O)N2[C@H]1C(=O)O [AMOXICILLIN] | – | 32 | 25 | 24 | 21 | 21 | 22 | 0.5 (≈ 1.37 µM) | 0.5 (≈ 1.37 µM) | 0.25 (≈ 0.684 µM) | 0.25 (≈ 0.684 µM) | 1 (≈ 2.74 µM) | 1 (≈ 2.74 µM) | 2 (≈ 5.47 µM) | 2 (≈ 5.47 µM) | 0.5 (≈ 1.37 µM) | 0.5 (≈ 1.37 µM) | 2 (≈ 5.47 µM) | 2 (≈ 5.47 µM) |
| CCn1cc(C(=O)NNC(=S)/N=c2\[nH]c3ccccc3[nH]c2=O)c(=O)c2ccc(C)nc21 | 93 | 20 | 19 | 18 | 19 | 22 | 18 | 1 (≈ 2.22 µM) | 1 (≈ 2.22 µM) | 2 (≈ 4.45 µM) | 2 (≈ 4.45 µM) | 2 (≈ 4.45 µM) | 2 (≈ 4.45 µM) | > 4 | > 4 | 2 (≈ 4.45 µM) | 2 (≈ 4.45 µM) | 2 (≈ 4.45 µM) | 2 (≈ 4.45 µM) |
| CCn1cc(C(=O)NNC(N)=S)c(=O)c2ccc(C)nc21 | 84 | 28 | 29 | 30 | 26 | 23 | 23 | 0.12 (≈ 0.393 µM) | 0.12 (≈ 0.393 µM) | 0.12 (≈ 0.393 µM) | 0.12 (≈ 0.393 µM) | 0.12 (≈ 0.393 µM) | 0.12 (≈ 0.393 µM) | 0.25 (≈ 0.819 µM) | 0.25 (≈ 0.819 µM) | 0.5 (≈ 1.64 µM) | 0.5 (≈ 1.64 µM) | 0.5 (≈ 1.64 µM) | 0.5 (≈ 1.64 µM) |
| CCn1cc(C(=O)O)c(=O)c2ccc(C)nc21 [NALIDIXIC ACID] | 63 | 27 | 26 | 25 | 22 | 25 | 24 | 0.12 (≈ 0.517 µM) | 0.12 (≈ 0.517 µM) | 0.25 (≈ 1.08 µM) | 0.25 (≈ 1.08 µM) | 0.25 (≈ 1.08 µM) | 0.25 (≈ 1.08 µM) | 1 (≈ 4.31 µM) | 1 (≈ 4.31 µM) | 1 (≈ 4.31 µM) | 1 (≈ 4.31 µM) | 1 (≈ 4.31 µM) | 1 (≈ 4.31 µM) |

— ChEMBL document CHEMBL3616412, “Re-engineering nalidixic acid's chemical scaffold: A step towards the development of novel anti-tubercular and anti-bacterial leads for resistant pathogens” (2015)
